Source: US11976064B2, “Toll-like receptor agonists” (Pfizer Inc., priority 2019, dated 2024)

What follows are compounds tested on peripheral blood mononuclear cells (PBMCs) (assay: IFNα release assay from peripheral blood mononuclear cells (HTRF)). Details: Homo sapiens, PBMC, 24 h, freshly isolated human PBMC, IFNα by HTRF, geometric mean when tested more than once.
Format: cell-based
Experimental: The Examples described were tested for biological activity in functional cellular assays using HEK293 cells stably overexpressing human TLR7 or TLR8. The assays tested for the ability of each Example to stimulate secretion of interferon alpha (IFNα) in human primary blood mono nuclear cells (PBMC).
To determine the ability of each Example to induce the release of interferon alpha (IFNα) from freshly isolated peripheral blood mononuclear cells (PBMCs), a Homogeneous Time-Resolved Fluorescence (HTRF) assay was utilized. Human whole blood was collected from healthy donors via vein puncture in accordance with Pfizer protocols (Protocol No. GOHW RDP-01), approved by the Shulman Institutional Review Board. 50 ml of human venous blood sample from individual donors was heparinized by addition to a conical tube containing 714 units of Heparin Sodium Injection MDV (Fresenius Kabi, cat #70041) followed by gentle inversion of the tube several times. Blood was then transferred to a flask, the conical tube was rinsed with 40 ml of PBS containing 2 mM EDTA (PBS-EDTA), and the rinse was added to the blood flask with gently mixing. 30 ml of the diluted blood was added to 3 separate histopaque tubes (Sigma, cat #A0561), applying directly to the frit. Histopaque tubes were then spun for 15 min at 1000×g in a tabletop centrifuge. Following density separation, excess upper phase of plasma was aspirated to within ˜5 ml above the interphase and remaining plasma along with the cloudy interphase containing PBMCs were gently decanted into a new conical tube. 15 ml of PBS-EDTA was added to the histopaque tube and swirled gently to remove remaining PBMCs that adhered to the tube wall and this wash was added to the existing PBMCs in the tube. The volume of the tube was brought to 40 ml with PBS-EDTA and tubes were spun at 250×g for 12 minutes at room temperature. After aspiration of the supernatant, the pellet was gently resuspended with 10 ml of PBS-EDTA and centrifuged again at 250×g for 12 minutes. The resulting supernatant was decanted, and the pellet was resuspended in 20 ml of ACK lysing buffer (ThermoFisher, cat #A10492-01) followed by incubation at room temperature for 5 minutes. The volume of each tube was brought to 50 ml with the addition of PBS-EDTA and tubes were spun at 177×g for 12 minutes at room temperature. The PBMC pellet was again resuspended in 10 ml of PBS without EDTA and tubes were spun for a final time at 177×g for 10 minutes. The supernatant was decanted and PBMCs were resuspended in Assay Media (RPMI base media with 10% FBS heat inactivated, 2 mM Glutamax and Penicillin/Streptomycin).
Each Example was prepared for the assay using 11-point half log serial dilutions from a 2.5 mM DMSO stock solution and 400 nl was spotted into 384 well Viewplate (Perkin Elmer, cat #6007480). Positive and negative controls (previously described) were also spotted within the assay plate and were used to determine percent effect during the analysis process. PBMCs were counted and plated at a density of 100,000 cells/[…]/well; plates were covered with a prewet microclime lid to prevent evaporation and incubated for 24 hrs at 37° C. in a 5% CO2 atmosphere. At the end of the incubation, the microclime lid was removed and the plates were spun at 1000 rpm for 5 minutes. 16 μl of conditioned media from the cell plate was transferred into a separate 384 well low-volume plate (Greiner One, 784080). IFNα levels were quantitated using an HTRF® kit (Cisbio, cat #62HIFNAPEG) according to the manufacturer's instructions. The kit supplies two different specific antibodies, one labelled with D2 (acceptor) and the other labelled with cryptate (donor), and detection buffer. The antibody stocks were diluted […] in detection buffer. For one 384 well plate, 62.5 μl of D2 antibody stock and 62.5 μl of cryptate antibody stock was added to 2.375 ml of detection buffer and mixed well. […]
For CCOCc1nc2c(N)nc(C)c(C)c2n1CC(CO)CO [Example 1, 2-((4-amino-2-(ethoxymethyl)-6,7-dimethyl-1H-imidazo[4,5-c]pyridin-1-yl)methyl)propane-1,3-diol], the EC50 was 99 nM.
For CCOCc1nc2c(N)nc(C)c(C)c2n1CC(C)(CO)CO [Example 2, 2-((4-amino-2-(ethoxymethyl)-6,7-dimethyl-1H-imidazo[4,5-c]pyridin-1-yl)methyl)-2-methylpropane-1,3-diol], the EC50 was 19 nM.
With CCOCc1nc2c(N)nc3ccccc3c2n1CC(C)(CO)CO [Example 3, 2-((4-amino-2-(ethoxymethyl)-1H-imidazo[4,5-c]quinolin-1-yl)methyl)-2-methylpropane-1,3-diol] the EC50 was 7 nM.
Work on Cc1nc(N)c2nc(CC(F)(F)F)n(CC(C)(CO)CO)c2c1C [Example 8, 2-((4-amino-6,7-dimethyl-2-(2,2,2-trifluoroethyl)-1H-imidazo[4,5-c]pyridin-1-yl)methyl)-2-methylpropane-1,3-diol] yielded an EC50 of 48 nM.
Compound CCOCc1nc2c(N)nc(C)c(C)c2n1CC(CC)(CO)CO [Example 9, 2-((4-amino-2-(ethoxymethyl)-6,7-dimethyl-1H-imidazo[4,5-c]pyridin-1-yl)methyl)-2-ethylpropane-1,3-diol] has an EC50 of 2 nM.
Compound CCCCc1nc2c(N)nc3ccccc3c2n1CC(C)(CO)CO [Example 10, 2-((4-amino-2-butyl-1H-imidazo[4,5-c]quinolin-1-yl)methyl)-2-methylpropane-1,3-diol] has an EC50 of 1 nM.
CCCCc1nc2c(N)nc3c(c2n1CC(C)(CO)CO)CCCC3 [Example 13, 2-((4-amino-2-butyl-6,7,8,9-tetrahydro-1H-imidazo[4,5-c]quinolin-1-yl)methyl)-2-methylpropane-1,3-diol] showed an EC50 of 0.4 nM.
Compound CCCCc1nc2c(N)nc3c(c2n1CC(C)(CO)CO)CCC3 [Example 14, 2-((4-amino-2-butyl-7,8-dihydrocyclopenta[b]imidazo[4,5-d]pyridin-1(6H)-yl)methyl)-2-methylpropane-1,3-diol] has an EC50 of 7 nM.
Work on CCc1nc2c(N)nc3ccccc3c2n1CC(C)(CO)CO [Example 15, 2-((4-amino-2-ethyl-1H-imidazo[4,5-c]quinolin-1-yl)methyl)-2-methylpropane-1,3-diol] yielded an EC50 of 12 nM.
CCCc1nc2c(N)nc3ccccc3c2n1CC(C)(CO)CO [Example 16, 2-((4-amino-2-propyl-1H-imidazo[4,5-c]quinolin-1-yl)methyl)-2-methylpropane-1,3-diol] gave an EC50 of 11 nM.

Same assay, conditions: freshly isolated human PBMC, 24 hrs, IFNα by HTRF; geometric mean when tested more than once
With CCOCc1nc2c(N)nc(C)c(C)c2n1CC(C)(CO)COC (single isomer, unassigned) [Example 6, 3-(4-amino-2-(ethoxymethyl)-6,7-dimethyl-1H-imidazo[4,5-c]pyridin-1-yl)-2-(methoxymethyl)-2-methylpropan-1-ol] the EC50 was 22 nM.
For CCOCc1nc2c(N)nc(C)c(C)c2n1CC(C)(CO)COC (single isomer, unassigned) [Example 7, 3-(4-amino-2-(ethoxymethyl)-6,7-dimethyl-1H-imidazo[4,5-c]pyridin-1-yl)-2-(methoxymethyl)-2-methylpropan-1-ol], the EC50 was 198 nM.
